These results are taken from patent publication US9309235B2, “SGC stimulators” (IRONWOOD PHARMACEUTICALS, INC., priority 2012, dated 2016).

Assay [1] concerns the target T1, Human soluble guanylate cyclase enzyme (hsGC) (Homo sapiens, UniProt Q02108+Q02153).
T1 construct: purchased Enzo Inc. ALX-201-177
T1 sequence (Q02153 1-619): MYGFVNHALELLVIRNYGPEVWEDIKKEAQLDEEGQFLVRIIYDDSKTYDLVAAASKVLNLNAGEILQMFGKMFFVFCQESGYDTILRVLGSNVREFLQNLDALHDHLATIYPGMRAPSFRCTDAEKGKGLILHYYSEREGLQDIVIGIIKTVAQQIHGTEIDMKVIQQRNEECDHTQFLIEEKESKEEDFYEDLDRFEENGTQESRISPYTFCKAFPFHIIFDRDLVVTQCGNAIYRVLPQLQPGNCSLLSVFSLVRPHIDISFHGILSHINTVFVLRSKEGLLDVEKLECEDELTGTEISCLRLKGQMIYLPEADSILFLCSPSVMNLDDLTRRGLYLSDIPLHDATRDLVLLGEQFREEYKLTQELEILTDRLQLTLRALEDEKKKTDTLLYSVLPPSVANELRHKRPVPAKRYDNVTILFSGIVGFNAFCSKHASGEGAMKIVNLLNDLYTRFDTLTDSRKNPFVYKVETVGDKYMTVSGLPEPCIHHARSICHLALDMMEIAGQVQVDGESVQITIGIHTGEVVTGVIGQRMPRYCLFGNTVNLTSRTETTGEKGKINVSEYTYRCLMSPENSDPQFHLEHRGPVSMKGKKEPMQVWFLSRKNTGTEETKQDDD
T1 sequence (Q02108 1-690): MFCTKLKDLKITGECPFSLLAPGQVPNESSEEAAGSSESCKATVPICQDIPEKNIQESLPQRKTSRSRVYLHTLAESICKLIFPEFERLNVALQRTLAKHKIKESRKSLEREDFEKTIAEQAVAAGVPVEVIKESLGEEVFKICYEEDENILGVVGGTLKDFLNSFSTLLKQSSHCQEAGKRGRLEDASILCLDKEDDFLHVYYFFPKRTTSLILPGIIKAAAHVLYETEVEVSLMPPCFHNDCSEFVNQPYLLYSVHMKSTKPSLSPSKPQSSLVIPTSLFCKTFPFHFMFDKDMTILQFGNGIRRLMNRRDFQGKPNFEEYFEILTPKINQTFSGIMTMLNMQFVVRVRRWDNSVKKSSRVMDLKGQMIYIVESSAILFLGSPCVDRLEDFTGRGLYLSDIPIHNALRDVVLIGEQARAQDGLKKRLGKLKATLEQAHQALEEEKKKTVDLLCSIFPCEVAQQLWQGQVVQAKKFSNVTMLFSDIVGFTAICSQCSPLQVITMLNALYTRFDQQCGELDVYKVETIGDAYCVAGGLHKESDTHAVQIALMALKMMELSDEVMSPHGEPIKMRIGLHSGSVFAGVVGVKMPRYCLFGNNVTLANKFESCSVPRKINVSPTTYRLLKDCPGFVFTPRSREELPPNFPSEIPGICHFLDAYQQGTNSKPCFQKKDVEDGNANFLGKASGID
Kind of assay: Purified human sGC enzyme synergy assay in the presence of sodium nitroprusside (SNP). The conditions noted are these: 30 μM compound in the presence of 1 μM SNP; fold increase over DMSO controls. The format is biochemical. How it is done:
Human soluble guanylate cyclase enzyme (hsGC) obtained from Enzo Inc. (P/N: ALX-201-177) was used to evaluate the activity of test compounds. The assay reactions contained 0.1 M Tris (pH 8.0), 0.5 mg/mL BSA (pH 8.0), 2 mM DTT, 2 mM MgCl2, 300 μM GTP, 1 mM 3-isobutyl-1-methylxanthine (IBMX) and 5 ng human soluble guanylate cyclase enzyme. Test compounds in DMSO were then added (2 μL, 10 or 30 μM final concentration) and incubated (water, 200 μL, 96-well plate format) at 37° C. for 30 minutes. The controls were carried out using 2 μL DMSO. After the 30 minute incubation, the reaction was stopped with the addition of 200 μL of cold methanol. The plate was then centrifuged at 3,200 rpm for 10 minutes at room temperature. Supernatants (200 μL) were collected and transferred to a new 96 well plate for analysis by HPLC LC/MS/MS.
An 8 point cGMP (Sigma-Aldrich P/N: G6129) standard curve was prepared in assay buffer ranging from 0.156-20 μM. Samples for the cGMP standard curve were then diluted with an equal volume of methanol resulting in final cGMP concentrations of 0.078-10 μM.
The cGMP standard curve was generated using GraphPad Prism Software.
Calculations: Specific Activity was determined by the amount of cGMP formed (nmoles) per mg of sGC per min. Enzyme “fold-change” was calculated by dividing Specific Activity for test compounds by Specific Activity of DMSO controls. […]

Assay [2] has as its target T2, soluble guanylate cyclase (sGC) (Homo sapiens, UniProt Q02108+Q02153).
T2 construct: endogenously expressing soluble guanylate cyclase (sGC); endogenous in cells; host or cells: HEK293
T2 sequence (Q02153 1-619): T1 sequence (Q02153 1-619)
T2 sequence (Q02108 1-690): T1 sequence (Q02108 1-690)
Kind of assay: sGC-HEK-cGMP assay (run with SNP incubation). The format is cell-based. The conditions noted are these: for pEC50: full concentration-response curve, with SNP incubation, read-out: HEK assay EC50-unconstrained; for pEC50 / Emax: top not fitted to 100%; for Emax: maximum activity from full concentration-response curve, relative to positive control BAY 41-2272, read-out: HEK assay Emax-unconstrained (Percent); for Emax at 1 µM: test compound 1 μM, read-out: HEK assay (Percent Emax at 1 μM); for Emax at 1 µM / Emax at 10 µM / Emax at 30 µM: 10 μM SNP, Emax = 100% is BAY 41-2272 at 10 μM in the presence of 100 μM SNP; for Emax at 10 µM: test compound 10 μM, read-out: HEK assay (Percent Emax at 10 μM); for Emax at 30 µM: test compound 30 μM, read-out: HEK assay (Percent Emax at 30 μM). The protocol: (Assay Run with SNP Incubation)
Human embryonic kidney cells (HEK293), endogenously expressing soluble guanylate cyclase (sGC), were used to evaluate the activity of test compounds. Compounds stimulating the sGC receptor should cause an increase in the intracellular concentration of cGMP. HEK 293 cells were seeded in Dulbecco's Modification of Eagle's Medium supplemented with fetal bovine serum (10% final) and L-glutamine (2 mM final) in a 200 μL volume at a density of 1×10^5 cells/well in a poly-D-lysine coated 96 well flat bottom plate and grown overnight at 37° C. Medium was aspirated and cells were washed with 1× Hank's Buffered Saline Salt Solution (200 μL). Cells were then incubated for 15 minutes at 37° C. with 200 μL of a 0.5 mM 3-isobutyl-1-methylxanthine (IBMX) solution. Test article and sodium nitroprusside solutions (x μM concentration for test article solution and 10 μM concentration for SNP solution; wherein x is one of the following concentrations);
were then added to the assay mixture (2 μL each) and the resulting mixture incubated at 37° C. for 10 minutes. After the 10 minute incubation, the assay mixture was aspirated and 0.1M HCl (200 μL) was added to the cells. The plate was incubated at 4° C. for 30 minutes in the 0.1M HCl to stop the reaction and lyse the cells. The plates were then centrifuged at 1,200 g for 5 minutes at room temperature. Supernatants were collected and transferred to a new flat bottom 96 well plate for analysis by HPLC-MS. Vehicle controls were carried out using DMSO (1%) solutions. A known sGC stimulator, BAY 41-2272, was used as the positive control. Samples were diluted with an equal volume of 1 M Ammonium Acetate (pH 7) to neutralize samples for better chromatography. A 2× cGMP standard solution was prepared in 0.1 M HCl and then diluted with an equal volume of 1 M Ammonium Acetate, with the following final concentrations in nM: 1024, 512, 256, 128, 64, 32, 16, 8, 4, 2, 1. cGMP concentrations in the test plates were determined from each sample using the LC/MS conditions shown in Table 2 below and the calculated cGMP standard curve. EC50 values were calculated from concentration-response curves generated with GraphPad Prism Software.
The biological activities of some of the compounds of Formula I determined with the sGC—HEK assay with SNP incubation are summarized in Tables 3A and 3B.

The subject of assay [3] is lambs with acute pulmonary hypertension. The conditions noted are these: cited from earlier work; for effect on mean arterial pressure / pulmonary vasodilation / transpulmonary cGMP release / systemic arterial oxygenation: inhaled microparticles, awake lambs; for effect on mean arterial pressure / pulmonary vasodilation / transpulmonary cGMP release: U-46619 infusion.

In general, pEC50 refers to the negative decadic logarithm of the EC50, by convention in mol/L. One may read the Emax as the maximal effect, on the per cent scale that the assay sets.

pEC50: −log10 of the molar value.

With `Oc1nc(-c2cc(-c3ccon3)n(Cc3ccsc3)n2)ncc1F` [Compound I-2], the “Enzyme Activity (increase at 30 μM with SNP)” value in assay [1] is on record as “D (D = 10 or <20 fold increase)”. In addition, in assay [2], the pEC50 was 6.00 to 6.30, the Emax was in the range of 40 to 60%, the Emax at 1 µM was 20 to 40% and the maximal effect (Emax) at 10 µM was 40 to 60%. Besides, the maximal response (Emax) at 30 µM in assay [2] is 40 to 60%.
As to `O=c1onc2cnc3ccccc3n12` [ODQ, 1H-[1,2,4]oxadiazolo[4,3-a]quinoxalin-1-one], the “pulmonary vasodilator effect of iNO” value in assay [3] (intravenous administration) is listed as “markedly reduced”.
Regarding `Oc1nc(-c2cc(-c3ccon3)n(Cc3cccs3)n2)ncc1F` [Compound I-4], in assay [2], the pEC50 was 5.00 to 5.30, the maximal effect (Emax) lay within 60 to 80%, the Emax at 1 µM fell in the range of 0 to 10% and the Emax at 10 µM was in the range of 40 to 60%. Moreover, the Emax at 30 µM in assay [2] lay in the range of 40 to 60%.
With `O=C(O)CCCCN(CCc1ccccc1OCc1ccc(CCc2ccccc2)cc1)Cc1ccc(C(=O)O)cc1` [BAY 58-2667], the “pulmonary vasodilation and transpulmonary cGMP release after treatment with ODQ” value in assay [3] (inhaled microparticles after intravenous ODQ) is “greatly enhanced”. Further, in assay [3], the “effect on mean arterial pressure” value is given as “without significant effect”, the pulmonary vasodilation result was “dose dependent pulmonary vasodilation”, the “transpulmonary cGMP release” value was “increased transpulmonary cGMP release” and the systemic arterial oxygenation entry is on record as “increased systemic arterial oxygenation”.
For the compound `Nc1ccnc(-c2cc(-c3ccon3)n(Cc3ccsc3)n2)n1` [Compound I-1], the “Enzyme Activity (increase at 30 μM with SNP)” value in assay [1] is recorded as “D (D = 10 or <20 fold increase)”. Also, in assay [2], the pEC50 was 5.30 to 6.00, the Emax lay in the range of 60 to 80%, the Emax at 1 µM lay within 20 to 40% and the Emax at 10 µM was in the range of 40 to 60%. The maximum response (Emax) at 30 µM in assay [2] fell in the range of 60 to 80%.
Turning to `Nc1nc(-c2nn(Cc3ccccc3F)c3ncccc23)ncc1C1CC1` [BAY 41-2272], in assay [3], the “effect on mean arterial pressure” value was “without significant effect”, the pulmonary vasodilation entry is reported as “dose dependent pulmonary vasodilation” and the “transpulmonary cGMP release” value is reported as “increased transpulmonary cGMP release”.
As for `Nc1nc(-c2nn(Cc3ccccc3F)c3ncccc23)nc(N)c1N1CCOCC1` [BAY 41-8543], the “magnitude and duration of pulmonary vasodilation induced by iNO” value in assay [3] (after inhaling microparticles) is listed as “augmented”. Also, in assay [3], the “effect on mean arterial pressure” value was “without significant effect”, the pulmonary vasodilation entry was “dose dependent pulmonary vasodilation”, the “transpulmonary cGMP release” value is reported as “increased transpulmonary cGMP release” and the systemic arterial oxygenation entry is recorded as “increased systemic arterial oxygenation”.
With `Oc1nc(-c2cc(-c3ccon3)n(Cc3sccc3F)n2)ncc1F` [Compound I-3], in assay [2], the pEC50 was 7.00 to 8.00, the Emax fell in the range of 40 to 60%, the Emax at 1 µM was 40 to 60% and the Emax at 10 µM was 40 to 60%. Further, the Emax at 30 µM in assay [2] lay in the range of 60 to 80%.
